Assay results published in patent publication US20230293677A1 (priority 2020, published 2023).
Where two headings read alike, the source gives them in different places.

Tests used:
[1] = test system: Herpes simplex virus (HSV) of type 1, US strain; assay: Herpetic infection model in irradiated mice, survival after immunization; format: in vivo, outbred mice; details: for Number of dead animals, % / Number of survived animals, %: 2.5 LD50 s.c.
[2] = test system: virus of Venezuelan equine encephalomyelitis, strain Trinidad; design: species or system outbred male mice; details: mouse, in vivo
[3] = test system: Cowpox virus (CP), Pumenok strain; design: species or system outbred male mice; details: mouse, in vivo
[4] = test system: botulinum toxin of type A; design: species or system white mice; details: mouse, in vivo
[5] = test system: botulinum toxin of type A; design: species or system guinea pigs; details: guinea pig, in vivo
[6] = test system: antigens of the VVE virus; design: species or system white outbred male mice; details: mouse, in vivo
[7] = test system: smallpox antigens; design: species or system white outbred male mice; details: mouse, in vivo
[8] = adjuvant 150 μg/individual i.m. 3, 2, 1 days before

`Nc1cccc2c([O-])nnc([O-])c12.[Na+].[Na+]` [Abidov's adjuvant, sodium salt of 5-amino-1,2,3,4-tetrahydrophthalazine-1,4-dione] was tested, and the “Number of dead animals, %” value [1, 8] was 70%, the “Number of survived animals, %” value [1, 8] was 30% and the “Number of dead animals, %” value ([1]; only adjuvant, single dose) was 80%. The “Number of survived animals, %” value ([1]; only adjuvant, single dose) was 20%, the “increase of the effectiveness of IMP” value ([1]; adjuvant used in immunization schemes with herpetic vaccine) was 30% and the “survival rate of infected mice” value [2] was 60-100%. For the same compound, the “adjuvant effect in relation to SLDV” value [3] was “not possible to identify a pronounced adjuvant effect”, the “effect on the formation of specific orthopoxvirus immunity” value [3] was “no negative effect” and the “Survival rate, M (M − tm − M + tm), %” value [4] was 0%. For the same compound, the “Survival rate, M (M − tm − M + tm), %” value [5] was 0%, the “increase in the level of positive seroconversions compared with animals vaccinated only with VVE” value [6] was 30% and the “increase in the titer of specific anti-smallpox antibodies compared with animals vaccinated with only SLDV” value [7] was 4 times.
